Assay results from patent US20240067632A1, “WEE1 Degrading Compounds and Uses Thereof” (Bristol-Myers Squibb Company, priority 2022, published 2024).
Where two headings read alike, the source gives them in different places.

Key:
WEE1 = molecular target: T1, WEE1 (Homo sapiens, UniProt P30291+Q96SW2); test: WEE1-ePL degradation assay (LentiX-WEE1-ePL-GSPT1-ND cells, InCELL Hunter luminescence, 4 h); format: cell-based; settings: 293T-LentiX WEE1-ePL cells; for DC50: read-out: 293T-LentiX WEE1-ePL Degradation 4 hr (EC50)
T1 construct: C-terminal ePL-tagged (DiscoverX, Fremont, CA) full-length WEE1 expression construct; expressed in transfected cells; host or cells: LentiX-HEK293T (Invitrogen), lentiviral transduction; co-expressing GSPT1-GN (G576N, lacking the first 158 amino acids)
Procedure, shortened: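 HEK293T cells stably expressing C-terminal ePL-tagged full-length WEE1, 2500 cells/well, treated 4 h at 37° C with a 10-point 3-fold series from 1 or 10 uM. Remaining WEE1-ePL read by InCELL Hunter luminescence after 30 min. EC50 came from a four-parameter logistic fit, with Ymax set from DMSO control.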

MKN45 cells = test: MKN45 cell proliferation assay (Cell-Titer-Glo, 120 h); format: cell-based; settings: for EC50: Homo sapiens, MKN-45, 120 h, Cell-Titer-Glo, read-out: MKN45 Cell Prolif. 120 hr (EC50); for MKN45 Cell Prolif. 120 hr (Ymin-Obs): minimal percent of DMSO control observed in the concentrations tested
Procedure, shortened: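 Growth inhibition was read as blank-corrected Cell-Titer-Glo luminescence expressed as percent DMSO control after 120 h at 37 C, 400 cells/well. Compounds tested in triplicate as 10-point half-log series from 1 or 10 uM, 0.1% DMSO; four-parameter fit gave EC50, and lowest observed percent control was reported as Ymin-obs.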

[1] = lower limit of the fit (Ymin=0 luciferase inhibitor, Ymax DMSO control)
[2] = lower limit of the fit (0 = luciferase inhibitor, Ymax = DMSO control)

SMILES: CC(=O)N1CCN(c2ncc3cc(CN4CC[C@H](Oc5ccc6c(c5)CN([C@H]5CCC(=O)NC5=O)C6=O)C4)ccc3n2)CC1 [(3S)-3-(5-{[(3S)-1-{[2-(4-acetylpiperazin-1-yl)quinazolin-6-yl]methyl}pyrrolidin-3-yl]oxy}-1-oxo-2,3-dihydro-1H-isoindol-2-yl)piperidine-2,6-dione]
- 293T-LentiX WEE1-ePL Degradation 4 hr (Ymin) (WEE1; [1]): 39.39
- DC50 (WEE1): 9.27 nM
- EC50 (MKN45 cells): 8.63 nM
- MKN45 Cell Prolif. 120 hr (Ymin-Obs) (MKN45 cells): 9.801

SMILES: CNC(=O)c1ccc2cc(CN3CC[C@H](Oc4ccc5c(c4)CN(C4CCC(=O)NC4=O)C5=O)C3)ccc2n1 (stereo partly drawn) [6-{[(3S)-3-{[2-(2,6-dioxopiperidin-3-yl)-1-oxo-2,3-dihydro-1H-isoindol-5-yl]oxy}pyrrolidin-1-yl]methyl}-N-methylquinoline-2-carboxamide]
- 293T-LentiX WEE1-ePL Degradation 4 hr (Ymin) (WEE1; [2]): 26.91
- DC50 (WEE1): 4.27 nM
- EC50 (MKN45 cells; growth inhibition): 11.7 nM
- MKN45 Cell Prolif. 120 hr (Ymin-Obs) (MKN45 cells): 9.36

SMILES: CC1(C)C[C@@H](c2ncc3cc(CN4CC[C@H](Oc5ccc6c(c5)CN(C5CCC(=O)NC5=O)C6=O)C4)ccc3n2)CCO1 (stereo partly drawn) [3-(5-{[(3S)-1-({2-[(4S)-2,2-dimethyloxan-4-yl]quinazolin-6-yl}methyl)pyrrolidin-3-yl]oxy}-1-oxo-2,3-dihydro-1H-isoindol-2-yl)piperidine-2,6-dione]
- 293T-LentiX WEE1-ePL Degradation 4 hr (Ymin) (WEE1; [2]): 31
- DC50 (WEE1): 43.4 nM
- EC50 (MKN45 cells; growth inhibition): 9.52 nM
- MKN45 Cell Prolif. 120 hr (Ymin-Obs) (MKN45 cells): 8.354

SMILES: COCc1ncc2cc(CN3CC[C@H](Oc4ccc5c(c4)CN(C4CCC(=O)NC4=O)C5=O)C3)ccc2n1 (stereo partly drawn) [3-(5-{[(3S)-1-{[2-(methoxymethyl)quinazolin-6-yl]methyl}pyrrolidin-3-yl]oxy}-1-oxo-2,3-dihydro-1H-isoindol-2-yl)piperidine-2,6-dione]
- 293T-LentiX WEE1-ePL Degradation 4 hr (Ymin) (WEE1; [2]): 32
- DC50 (WEE1): 47.5 nM
- EC50 (MKN45 cells; growth inhibition): 78.5 nM
- MKN45 Cell Prolif. 120 hr (Ymin-Obs) (MKN45 cells): 9.73

SMILES: O=C1CCC(N2Cc3cc(O[C@H]4CCN(Cc5ccc6nc([C@@H]7CCOC7)ccc6c5)C4)ccc3C2=O)C(=O)N1 (stereo partly drawn) [3-(1-oxo-5-{[(3S)-1-({2-[(3S)-oxolan-3-yl]quinolin-6-yl}methyl)pyrrolidin-3-yl]oxy}-2,3-dihydro-1H-isoindol-2-yl)piperidine-2,6-dione]
- 293T-LentiX WEE1-ePL Degradation 4 hr (Ymin) (WEE1; [2]): 30
- DC50 (WEE1): 2.41 nM
- EC50 (MKN45 cells; growth inhibition): 2.45 nM
- MKN45 Cell Prolif. 120 hr (Ymin-Obs) (MKN45 cells): 8.77

SMILES: CO[C@@H]1CC[C@H](c2ccc3cc(CN4CC[C@H](Oc5ccc6c(c5)CN(C5CCC(=O)NC5=O)C6=O)C4)ccc3n2)C1 (stereo partly drawn) [3-(5-{[(3S)-1-({2-[(1S,3R)-3-methoxycyclopentyl]quinolin-6-yl}methyl)pyrrolidin-3-yl]oxy}-1-oxo-2,3-dihydro-1H-isoindol-2-yl)piperidine-2,6-dione]
- 293T-LentiX WEE1-ePL Degradation 4 hr (Ymin) (WEE1; [2]): 29.67
- DC50 (WEE1): 2.07 nM
- EC50 (MKN45 cells; growth inhibition): 1.61 nM
- MKN45 Cell Prolif. 120 hr (Ymin-Obs) (MKN45 cells): 8.776

SMILES: O=C1CCC(N2Cc3cc(O[C@H]4CCN(Cc5ccc6nc(C7(O)CCOCC7)ccc6c5)C4)ccc3C2=O)C(=O)N1 (stereo partly drawn) [3-(5-{[(3S)-1-{[2-(4-hydroxyoxan-4-yl)quinolin-6-yl]methyl}pyrrolidin-3-yl]oxy}-1-oxo-2,3-dihydro-1H-isoindol-2-yl)piperidine-2,6-dione]
- 293T-LentiX WEE1-ePL Degradation 4 hr (Ymin) (WEE1; [2]): 31.5
- DC50 (WEE1): 8.84 nM
- EC50 (MKN45 cells; growth inhibition): 7.41 nM
- MKN45 Cell Prolif. 120 hr (Ymin-Obs) (MKN45 cells): 6.55

SMILES: O=C1CCC(N2Cc3cc(O[C@@H]4CN(Cc5ccc6nc([C@H]7CCOC7)ccc6c5)C[C@H]4C(F)(F)F)ccc3C2=O)C(=O)N1 (stereo partly drawn) [3-(1-oxo-5-{[(3S,4R)-1-({2-[(3R)-oxolan-3-yl]quinolin-6-yl}methyl)-4-(trifluoromethyl)pyrrolidin-3-yl]oxy}-2,3-dihydro-1H-isoindol-2-yl)piperidine-2,6-dione]
- 293T-LentiX WEE1-ePL Degradation 4 hr (Ymin) (WEE1; [1]): 27.14
- DC50 (WEE1): 3.64 nM
- EC50 (MKN45 cells): 22.6 nM
- MKN45 Cell Prolif. 120 hr (Ymin-Obs) (MKN45 cells): 24.26

SMILES: CN1CC[C@@H](c2ncc3cc(CN4CC[C@H](Oc5ccc6c(c5)CN(C5CCC(=O)NC5=O)C6=O)C4)ccc3n2)C1 (stereo partly drawn) [3-(5-{[(3S)-1-({2-[(3R)-1-methylpyrrolidin-3-yl]quinazolin-6-yl}methyl)pyrrolidin-3-yl]oxy}-1-oxo-2,3-dihydro-1H-isoindol-2-yl)piperidine-2,6-dione]
- 293T-LentiX WEE1-ePL Degradation 4 hr (Ymin) (WEE1; [1]): 37.05
- DC50 (WEE1): 225 nM
- EC50 (MKN45 cells): 48.4 nM
- MKN45 Cell Prolif. 120 hr (Ymin-Obs) (MKN45 cells): 13.19

SMILES: O=C1CCC(N2Cc3cc(O[C@H]4CCN(Cc5cnc6c(c5)CCCO6)C4)ccc3C2=O)C(=O)N1 (stereo partly drawn) [3-(1-oxo-5-{[(3S)-1-({2H,3H,4H-pyrano[2,3-b]pyridin-6-yl}methyl)pyrrolidin-3-yl]oxy}-2,3-dihydro-1H-isoindol-2-yl)piperidine-2,6-dione]
- 293T-LentiX WEE1-ePL Degradation 4 hr (Ymin) (WEE1; [2]): 33.245
- DC50 (WEE1): 35.4 nM
- EC50 (MKN45 cells; growth inhibition): 1120 nM
- MKN45 Cell Prolif. 120 hr (Ymin-Obs) (MKN45 cells): 23.52

SMILES: O=C1CC[C@H](N2Cc3cc(O[C@H]4CCN(Cc5ccc6nc(N7CCC7)ncc6c5)C4)ccc3C2=O)C(=O)N1 [(3S)-3-(5-{[(3S)-1-{[2-(azetidin-1-yl)quinazolin-6-yl]methyl}pyrrolidin-3-yl]oxy}-1-oxo-2,3-dihydro-1H-isoindol-2-yl)piperidine-2,6-dione]
- 293T-LentiX WEE1-ePL Degradation 4 hr (Ymin) (WEE1; [1]): 45.2
- DC50 (WEE1): 12.1 nM
- EC50 (MKN45 cells): 33.8 nM
- MKN45 Cell Prolif. 120 hr (Ymin-Obs) (MKN45 cells): 31.75

SMILES: O=C1CC[C@H](N2Cc3cc(O[C@H]4CCN(Cc5ccc6nc(C7CCOCC7)ccc6c5F)C4)ccc3C2=O)C(=O)N1 [(3S)-3-(5-{[(3S)-1-{[5-fluoro-2-(oxan-4-yl)quinolin-6-yl]methyl}pyrrolidin-3-yl]oxy}-1-oxo-2,3-dihydro-1H-isoindol-2-yl)piperidine-2,6-dione]
- 293T-LentiX WEE1-ePL Degradation 4 hr (Ymin) (WEE1; [2]): 34.42
- DC50 (WEE1): 0.306 nM
- EC50 (MKN45 cells; growth inhibition): 2.1 nM
- MKN45 Cell Prolif. 120 hr (Ymin-Obs) (MKN45 cells): 12.14

SMILES: O=C1CCC(N2Cc3cc(O[C@H]4CCN(Cc5ccc6c(c5)OC(=O)CN6)C4)ccc3C2=O)C(=O)N1 (stereo partly drawn) [3-(1-oxo-5-{[(3S)-1-[(2-oxo-3,4-dihydro-2H-1,4-benzoxazin-7-yl)methyl]pyrrolidin-3-yl]oxy}-2,3-dihydro-1H-isoindol-2-yl)piperidine-2,6-dione]
- 293T-LentiX WEE1-ePL Degradation 4 hr (Ymin) (WEE1; [2]): 80
- EC50 (MKN45 cells; growth inhibition): > 10000 nM
- MKN45 Cell Prolif. 120 hr (Ymin-Obs) (MKN45 cells): 90.28

SMILES: O=C1CCC(N2Cc3cc(O[C@H]4CCN(Cc5ccc6nc([C@H]7CC[C@@H](O)CC7)ccc6c5)C4)ccc3C2=O)C(=O)N1 (stereo partly drawn) [3-(1-oxo-5-{[(3S)-1-({2-[(1s,4s)-4-hydroxycyclohexyl]quinolin-6-yl}methyl)pyrrolidin-3-yl]oxy}-2,3-dihydro-1H-isoindol-2-yl)piperidine-2,6-dione]
- 293T-LentiX WEE1-ePL Degradation 4 hr (Ymin) (WEE1; [2]): 33
- DC50 (WEE1): 1.03 nM
- EC50 (MKN45 cells; growth inhibition): 0.329 nM
- MKN45 Cell Prolif. 120 hr (Ymin-Obs) (MKN45 cells): 7.956

SMILES: O=C1CCC(N2Cc3cc(O[C@H]4CCN(Cc5ccc6ncccc6n5)C4)ccc3C2=O)C(=O)N1 (stereo partly drawn) [3-(5-{[(3S)-1-[(1,5-naphthyridin-2-yl)methyl]pyrrolidin-3-yl]oxy}-1-oxo-2,3-dihydro-1H-isoindol-2-yl)piperidine-2,6-dione]
- 293T-LentiX WEE1-ePL Degradation 4 hr (Ymin) (WEE1; [2]): 37
- DC50 (WEE1): 27.9 nM
- EC50 (MKN45 cells; growth inhibition): 2520 nM
- MKN45 Cell Prolif. 120 hr (Ymin-Obs) (MKN45 cells): 54.03

SMILES: O=C1CCC(N2Cc3cc(O[C@H]4CCN(Cc5cc(-c6ccc(C7CCOCC7)cc6)ccn5)C4)ccc3C2=O)C(=O)N1 (stereo partly drawn) [3-(5-{[(3S)-1-({4-[4-(oxan-4-yl)phenyl]pyridin-2-yl}methyl)pyrrolidin-3-yl]oxy}-1-oxo-2,3-dihydro-1H-isoindol-2-yl)piperidine-2,6-dione]
- 293T-LentiX WEE1-ePL Degradation 4 hr (Ymin) (WEE1; [2]): 31
- DC50 (WEE1): 1.33 nM
- EC50 (MKN45 cells; growth inhibition): 0.192 nM
- MKN45 Cell Prolif. 120 hr (Ymin-Obs) (MKN45 cells): 6.39

SMILES: O=C1CCC(N2Cc3cc(O[C@H]4CCN(Cc5ccc6nc(N7CC8(COC8)C7)ncc6c5)C4)ccc3C2=O)C(=O)N1 (stereo partly drawn) [3-(5-{[(3S)-1-[(2-{2-oxa-6-azaspiro[3.3]heptan-6-yl}quinazolin-6-yl)methyl]pyrrolidin-3-yl]oxy}-1-oxo-2,3-dihydro-1H-isoindol-2-yl)piperidine-2,6-dione]
- 293T-LentiX WEE1-ePL Degradation 4 hr (Ymin) (WEE1; [2]): 37
- DC50 (WEE1): 35.5 nM
- EC50 (MKN45 cells; growth inhibition): 21.8 nM
- MKN45 Cell Prolif. 120 hr (Ymin-Obs) (MKN45 cells): 15.5
